# Assay results: PMC4721062, “Oxadiazole-2-oxides may have other functional targets, in addition to SjTGR, through which they cause mortality in Schistosoma japonicum” (Parasites & Vectors, 2016)
# Like-named read-outs stand apart in the source and are kept apart here.
# Experiments:
# [1] = test system: adult S. japonicum in mice; test: Treatment of infected mice at adult worm stage; assay type: in vivo, Schistosoma japonicum (ICR mice); details: for Number of eggs per gram of liver (Mean ± SD) / Number of worms (Mean ± SD): sacrificed day 42
# Description: (§1) The abdominal skin of each mouse (ICR, female, 22–24 g) was exposed to 20 S. japonica cercariae (as described above). The mice were intraperitoneally injected with 10 mg/kg oxadiazole-2-oxides daily for 5 days, beginning either 7 or 35 days post-infection. Control mice were treated with 10 mg/kg of the carrier medium. All mice were sacrificed 42 days post-infection. The worm burden of each mouse was confirmed by counting the number of worms observed from a portal vein perfusion. The mouse livers were digested overnight with 5 % potassium hydroxyl solution at 37 °C and the eggs in the liver tissue were counted under an inverted phase contrast microscope. The worm and egg reduction rates were calculated using the following formulas: Wormreductionrate%=meannumberofadultwormspermouseincontrolgroup−meannumberofadultwormspermouseinexperimentalgroup/meannumberofadultwormspermouseincontrolgroup. Eggreductionrate%=meannumberofeggspermouseincontrolgroup−meannumberofeggspermouseinexperimentalgroup/meannumberofeggspermouseincontrolgroup.
# [2] = test system: juvenile S. japonicum; test: microbe, parasite or virus in culture; assay type: cell-based; details: for mortality at 50 µM / killing at 2 µM / killing at 5 µM / killing at 50 µM: Schistosoma japonicum; for mortality at 50 µM: read-out: Mortality of juvenile worms; for killing at 2 µM / killing at 5 µM / killing at 50 µM / Killing activity 24hr / Killing activity 48hr / Killing activity 72hr: juvenile worms; for Killing activity 24hr / Killing activity 48hr / Killing activity 72hr: 10 μM
# Outline: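 Juvenile S. japonicum, 20–30 tail-shed cercariae per well, were exposed to compounds at 2, 5, 10 and 50 μM in RPMI 1640 with 10% FBS and HEPES. Survival was scored microscopically at 24, 48 and 72 h, with death defined by disrupted internal structure or tegument or 1 min without motility. % D is dead/total, averaged over three experiments.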
# [3] = test system: juvenile S. japonicum in mice; test: Treatment of infected mice at juvenile worm stage; assay type: in vivo, Schistosoma japonicum (ICR mice); details: 10 mg/kg i.p. daily for 5 days from day 7 post-infection; for Number of eggs per gram of liver (Mean ± SD) / Number of worms (Mean ± SD): sacrificed day 42; for Egg reduction rate / Worm reduction rate: versus control, 10 mg/kg
# Description: as §1
# [4] = test system: adult S. japonica; test: Activity against adult S. japonica in vitro with and without NO scavenger carboxy-PTIO; assay type: cell-based, Schistosoma japonicum; set-up: dose or concentration left out as unconfirmed; details: adult worms in vitro
# Description: To assess the importance of NO production, the potassium salt of carboxy-PTIO, a NO scavenger, was dissolved in water and 100 mM was incubated with freshly perfused adult S. japonica in the presence or absence of […] oxadiazole-2-oxides. The worms’ mobility, tegumental alterations and parasite survival were monitored using an inverted microscope. The experiment was done in triplicate.
# Fig. 4 Activity of oxadiazole-2-oxides against adult S. japonica in vitro, with and without carboxy-PTIO. Carboxy-PTIO was incubated with freshly perfused adult S. japonica at 100 mM in the presence and absence of […] oxadiazole-2-oxides. The worms’ mobility, tegumental alterations and survival rates were monitored under an inverted microscope. The experiment was done in triplicate. The percentage of adult worms that survived are shown (mean ± SD; n = 3)
# [5] = Cytotoxicity assay on Hela cells (MTT); assay type: cell-based; details: human
# Description: Cytotoxicity assays were performed using Hela cells. Cells in the exponential growth phase were collected by centrifugation and a concentration of 4–5 × 10^4/mL was created. 100 μL of the cell suspension was added to each well of a 96-well plate and cultured overnight at 37 °C in a humid atmosphere with 5 % CO2. Oxadiazole-2-oxides (at 10, 20, 40, 80 and 160 μM) were added. Each concentration was assayed in triplicate, and control wells (no cells and no drugs) were assayed at the same time. The “no cell” control wells only contained RPMI 1640 medium, MTT, DMSO, and oxadiazole-2-oxides. The “no drug” control wells contained the Hela cells, RPMI 1640 medium, MTT and DMSO. The cells were cultured for 48 h at 37 °C in a humid atmosphere with 5 % CO2. Then, 20 μL of 5 mg/mL MTT was added to each well and the culture conditions were maintained for 4 h. After this point, the medium was removed and 150 μL DMSO was added into each well to dissolve any crystallisation. The value of absorbance at 570 nm of each well was measured (at 570 nm) with a microplate reader to assess the toxic effect of the oxadiazole-2-oxides on the vertebrate cells.
# [6] = test system: S. mansoni; details: compared with 10 μM, 72 h data; cited from earlier work
# [7] = mice, 10 mg/kg i.p. daily for 5 days from day 35 post-infection
# [8] = mice, 10 mg/kg i.p. daily for 5 days from day 35 post-infection, versus control, 10 mg/kg
# [9] = 24 h, read-out: Killing activity 24hr
# [10] = 48 h, read-out: Killing activity 48hr
# [11] = 72 h, read-out: Killing activity 72hr
SMILES,"Number of eggs per gram of liver (Mean ± SD) [1, 7]","Number of worms (Mean ± SD) [1, 7]",mortality at 50 µM ([2]; 24 h) [%],mortality at 50 µM ([2]; 72 h) [%],"killing at 2 µM [2, 9] [%]","killing at 2 µM [2, 10] [%]","killing at 2 µM [2, 11] [%]","killing at 5 µM [2, 9] [%]","killing at 5 µM [2, 10] [%]","killing at 5 µM [2, 11] [%]","killing at 50 µM [2, 9] [%]","killing at 50 µM [2, 10] [%]","killing at 50 µM [2, 11] [%]",Killing activity 24hr ([2]; 24 h) [%D],Killing activity 48hr ([2]; 48 h) [%D],Killing activity 72hr ([2]; 72 h) [%D],Number of eggs per gram of liver (Mean ± SD) [3],Number of worms (Mean ± SD) [3],Egg reduction rate [3],Worm reduction rate [3],further results
N#Cc1c(-c2ccc(OC/C=C/CBr)cc2)no[n+]1[O-] [Compound 16],6424.1 ± 1193.4 (P < 0.05^**),3.7 ± 1.4 (P > 0.05^**),< 30,72.1 ± 3.7,14.7,22.7,25.3,16.1,21.9,34.3,31.4,60.5,72.1,20.9,27.3,39.1,"4,054.5 ± 1,322.1 (P > 0.05^**)",1.0 ± 0.5 (P > 0.05^**),49.5 (P < 0.01^*) %,90.8 (P < 0.01^*) %,"Reduction in the female worms ([1]; mice treated at adult worm stage (data not shown)): 44.7%; Egg reduction rate [1, 8]: 20.0 (P > 0.05^*) %; Worm reduction rate [1, 8]: 69.4 (P < 0.01^*) %; Killing activity with versus without carboxy-PTIO [4]: no differences in the killing activities; viability at 72 h, 80 µM [5]: 89%"
N#Cc1c(-c2ccc(Br)cc2)no[n+]1[O-] [Compound 7c],7213.0 ± 2658.0 (P < 0.05^**),12.0 ± 3.9 (P < 0.05^**),> 70,100,100,100,100,100,100,100,100,100,100,100.0,100.0,100.0,"3,859.4 ± 3,749.4 (P > 0.05^**)",1.4 ± 0.8 (P > 0.05^**),52.0 ( P > 0.05^*) %,87.1 (P < 0.01^*) %,"Egg reduction rate ([1]; mice, 10 mg/kg i.p. daily for 5 days from day 35 post-infection, versus control): 10.2 (P > 0.05^*) %; Mortality in adult worms of S. mansoni [6]: 100.0%; Killing activity with versus without carboxy-PTIO [4]: no differences in the killing activities; viability at 72 h, 80 µM [5]: 66%"
Cc1ccc(-c2no[n+]([O-])c2C#N)cc1 [Compound 7b],,,,,16,26.6,31.9,21.1,26.3,36.8,47.5,55.9,57.6,23.8,33.3,57.1,,,,,Mortality in adult worms of S. mansoni [6]: 70.0%
